Source: patent publication US8906865B2, “Treatment of inflammation and/or endotoxic shock” (ISIS Innovation Limited, priority 2007, dated 2014)
Non-standard residues stand in square brackets, D forms with d. Residues, ends and D or L forms follow the SMILES beside them. *: point of attachment. Sta = CC(C)C[C@H](N)[C@@H](O)CC(=O)O; Isovaleryl = CC(C)CC(=O)*; Cbz = O=C(OCc1ccccc1)*; CH2F = FC*

Key:
[1] = quoted in the discussion; cited from earlier work
[2] = tested on: Murine peritoneal macrophages (PMΦ); assay: Macrophage activation assay: LPS/IFNγ-induced inflammatory cytokine expression (ELISA, Luminex); type: cell-based, mouse; conditions: for Effect of protease inhibitor on chemerin-mediated suppression of MΦ activation (FIG. 1F): chemerin 1 pM + protease inhibitor 1 h, then LPS/IFNγ 15 h; for Percentage inhibition of LPS/IFNγ-induced inflammatory cytokine expression: RANTES / Percentage inhibition of LPS/IFNγ-induced inflammatory cytokine expression: TNFα: PMΦ, pre-treatment 1 h (0.1 pM-100 nM), then LPS 100 ng/ml + IFNγ 20 ng/ml 15 h, optimal dose (1 pM Chemerin and C15, 100 pM C13 and C19); for Optimal dose (maximal response) for suppression of LPS/IFNγ-induced cytokine expression: macrophage activation assay; for Anti-inflammatory activity in the MΦ activation assay: peptides 0.1 pM-100 nM
Experimental: Murine peritoneal macrophages (PMθ, also referred to as PMΦ herein) were cultured under various conditions: Untreated; LPS (100 ng/ml) and IFNγ (20 ng/ml) for 15 h; Chemerin (1 pM) pre-treatment for 1 h then LPS/IFNγ for 15 h; Leupeptin (protease inhibitor; 15 mg/ml) and Chemerin (1 pM) for 1 h then LPS/IFNγ for 15 h; or Dexamethasone (positive control; 1 μM pre-treatment for 1 h then LPS/IFNγ for 15 h.
Murine PMθ were cultured under various conditions: Untreated, LPS (100 ng/ml) and IFNγ (20 ng/ml) for 15 h; Chemerin peptides (at a concentration of 1 pM-100 nM) pre-treatment for 1 h then LPS/IFNγ for 15 h. […] Experiments were performed with triplicate determinations for each treatment. Representative data from five independent experiments employing cells from different groups of C57B16/J mice are shown. p<0.01 **; p<0.001 *** relative to LPS/IFNγ treated samples.
With reference to Table 1, anti-inflammatory activity of chemerin-derived peptides—Murine PMΦ were cultured as described for FIG. 1B and were challenged with LPS (100 ng/ml) and IFNγ (20 ng/ml) for 15 h with/without pre-treatment with peptides (0.1 pM-100 nM) for 1 h. […] Peptide sequences are: C11 (P144-A154; […]), C13 (P144-S156; […]), C15 (A140-A154; […]), C19 (A138-S156; […]; Seq ID: No. 37), N19 (E23-K41; […] Seq ID No: 44) and M20 (K86-K105; […] Seq ID No. 45). Control peptides: scrambled C15 (C15-S; […]) and mutant C15 (C15-M; […]; F148A & F153A). Data represent mean percentage inhibition of cytokine production by classically activated macrophages from 4-8 independent experiments as determined by ELISA and Luminex assay.
1 ml 2% BioGEL polyacrylamide beads in sterile Phosphate-Buffered Saline (PBS) were injected intraperitoneally (ip) into C57B1/6J mice. Four days after ip BioGEL administration, mice were sacrificed by the CO, method according to Home Office guidelines. Peritoneal cavities were flushed with 10 ml sterile PBS-2 mM EDTA to harvest BioGEL-evoked/elicited cellular infiltrate. Suspensions of harvested cells were centrifuged at 1000×g for 5 mins at 4° C. The supernatants were discarded and cell pellets were resuspended in 6 mls OptiMEM medium supplemented with 2 mM Glutamine, 50 units/ml Penicillin and 50 μg/ml Streptomycin. Macrophages were quantified following incubation on ice for 5-10 mins with Turk's solution using a haemocytometer. Cell suspensions (2 mls; 1.5×10^6/well) were plated in six-well tissue culture plates (35 mm diameter: Costar, UK) and allowed to adhere for 2 hours at 37° C. in a humidified atmosphere containing 5% CO2, to isolate macrophage populations by adherence. This gave greater than 95% purity assessed by cytospinning, staining of cells with Methylene Blue and Eosin and counting based on cellular morphology. Nonadherent cells (mainly granulocytes) were discarded and wells were washed three times with sterile PBS to remove loosely adherent or dead cells. […] To determine PTX sensitivity and dependency upon proteolysis, cells were pre-incubated with PTX (200 ng/ml) or Leupeptin (15 μg/ml). Additional cells were treated with peptides alone. Supernatants were harvested and stored at −20° C. until use in Enzyme-Linked Immunosorbance Assays (ELISAs) and Luminex assays. Cells were lysed to allow extraction of total RNA by the TRIZOL method. Lysates were stored at −80° C. until RNA extraction following manufacturer's guidelines (Qiagen, RNeasy Mini Prep Kit).
RANTES, Tumour necrosis factor (TNFα) and CCL9 concentrations in cell supernatants were assessed by ELISA. IL-12 p40, IL-10, IL-1β, TNFα, MCP-1 (Monocyte chemoattractant protein-1) and IL-6 levels were determined by Luminex multiplex bead assay (Bio-rad 6 plex assay). Lower limits of detection for ELISAs were 0.1-0.5 ng/ml and 10-50 pg/ml for Luminex assays.

[3] = tested on: PMΦ (peritoneal macrophages); assay: Macrophage chemotaxis assay (modified Boyden chamber); type: cell-based, mouse; conditions: for Macrophage chemotactic activity: migration over 4 h, compared with C140 and RANTES 25 ng/ml; for Concentration of maximal macrophage migration: tested 1 pM-100 nM
Experimental: PMθ (0.5×10^6) were allowed to migrate towards chemoattractant (Chemerin140 or Chemerin peptides) in the bottom well of a modified Boyden chamber over 4 h. Filters were fixed in 4% formalin, then migrated cell nuclei were stained with DAPI and visualised. Serum free media (SFM) were used as a negative control and the macrophage chemoattractant RANTES (25 ng/ml; 3 nM) as a positive control. The graphs indicate mean Migration Index (Chemoattractant % threshold area/SFM % threshold area)±SEM for each treatment group (n=5-6). p<0.001 ***; p<0.01 **; p<0.05 * relative to SFM treated wells.
PMθ were recruited following a 4 day peritoneal stimulation with BioGEL beads. Peritoneal cavities of male C57B16/J mice were lavaged with 5 ml PBS-2 mM EDTA. Cells were centrifuged and resuspended in RPMI supplemented with 0.5% BSA and 25 mM Hepes. Cells (0.5×10^6) were allowed to migrate towards chemoattractant (C140, C17m or C17m+C140) in the bottom well over 4 h. Filters were fixed in 4% formalin, then nuclei were stained with DAPI and visualised. Serum free media was used as a negative control (−/−). Cells were preincubated with Pertussis toxin (PTX) for 30 mins before the chemotaxis assay. The bar graphs in FIG. 11 show the mean Migration Index±SEM for each treatment group. Each bar represents at least triplicate wells and at least 3 pictures taken per treatment. p<0.001 ***; p<0.01 **; p<0.05 * relative to SFM treated wells unless otherwise stated.
Cell migration was assessed by use of transwell membranes (ChemoTX, 6-mm diameter, 8-μm pore size). Briefly, BioGEL-elicited cells were harvested and placed on transwell membranes (250 000 cells/membrane in RPMI supplemented with 25 mM Hepes and 0.1% bovine serum albumin. Cells were allowed to migrate toward Chemerin peptides (1 pM-100 nM) for 4 h. Signal transduction via G protein-coupled receptors was blocked by preincubating cells with pertussis toxin (PTX, 200 ng/ml, Sigma-Aldrich) for 30 mins before placing cells on transwell membranes. Migrated cells on the underside of membranes were fixed (3% formaldehyde) and stained with DAPI. Migration was quantified as total pixel count of DAPI stained nuclei under the confocal microscope (2 photos/membrane and a minimum of 3 replicate wells per treatment). Images were analyzed using Metamorph Offline software to determine percentage threshold areas (TA) occupied by migrated cells. Migration indices were obtained by dividing treatment TA by serum-free media TA. For secondary chemotaxis assays ChemoTx 3-mm diameter, 8-μm pore membranes were used with 50 000 cells/membrane.

[4] = C13m 100 pM, C15m 1 pM, C17m 1 pM, pre-treatment 1 h then LPS/IFNγ 15 h

Compound	Effect of protease inhibitor on chemerin-mediated suppression of MΦ activation (FIG. 1F) [2]	Percentage inhibition of LPS/IFNγ-induced inflammatory cytokine expression: RANTES [2] [%]	Percentage inhibition of LPS/IFNγ-induced inflammatory cytokine expression: TNFα [2] [%]	Macrophage chemotactic activity [3]	Anti-inflammatory activity in the MΦ activation assay [2]	further results
CCCCC/C=C\C[C@@H](O)/C=C/C=C/C=C\[C@@H](O)CCCC(=O)O [LTB4, leukotriene B4]	–	–	–	–	–	Potency of comparison mediators [1]: 10^−11 M
CC(=O)N[C@@H](CC(C)C)C(=O)N[C@@H](CC(C)C)C(=O)N[C@H](C=O)CCCNC(=N)N [Leupeptin, reference compound]	abolished its anti-inflammatory effects	–	–	–	–	–
Cl.NCCc1ccc(S(=O)(=O)F)cc1 [Pefabloc, reference compound]	exerted no effect	–	–	–	–	–
CC(C)CC(=O)N[C@H](C(=O)N[C@H](C(=O)N[C@@H](CC(C)C)[C@@H](O)CC(=O)N[C@@H](C)C(=O)N[C@@H](CC(C)C)[C@@H](O)CC(=O)O)C(C)C)C(C)C [Pepstatin A, reference compound] (Isovaleryl-VV[Sta]A[Sta]-OH)	exerted no effect	–	–	–	–	–
O=C(NC(Cc1ccccc1)C(=O)NC(Cc1ccccc1)C(=O)CF)OCc1ccccc1 (stereo not drawn) [Z-FF-FMK, reference compound] (Cbz-Phe-Phe-CH2F; configuration not given here)	independent of cathepsin L	–	–	–	–	–
CC(C)C[C@H](NC(=O)[C@H](Cc1ccccc1)NC(=O)OCc1ccccc1)C(=O)C=O [Z-FL-COCHO, reference compound]	dependent upon calpains and cathepsin S	–	–	–	–	–
CCCC[C@@H](C=O)NC(=O)[C@H](CC(C)C)NC(=O)OCc1ccccc1 [calpeptin, reference compound]	dependent upon calpains	–	–	–	–	–
CSCC[C@H](NC=O)C(=O)N[C@@H](CC(C)C)C(=O)N[C@@H](Cc1ccccc1)C(=O)O [fMLP, formyl-Methionyl-Leucyl-Phenylalanine]	–	–	–	–	–	Potency of comparison mediators [1]: 10^−11 M
AQAGEDPHGYFLPGQFAFS (listed as Mus sp.) [C19]	–	41	21	no chemotactic activity	–	Optimal dose (maximal response) for suppression of LPS/IFNγ-induced cytokine expression [2]: 100 pM
ELSETQRRSLQVALEEFHK (listed as Mus sp.) [N19, N-terminal peptide E23-K41]	–	0	0	–	devoid of anti-inflammatory activity	–
FSRALRTK (listed as Mus sp.) [C8, 8 aa peptide removed during prochemerin cleavage, reference compound]	–	0	0	incapable of inducing MΦ migration	no detectable anti-inflammatory activity	–
KPECTIKPNGRRRKCLACIK (listed as Mus sp.) [M20, midstream peptide K86-K105]	–	0	0	–	devoid of anti-inflammatory activity	–
PHGYFLPGQFA (listed as Mus sp.) [C11]	–	0	0	little chemotactic activity	devoid of anti-inflammatory activity	Concentration of maximal macrophage migration [3]: 10 nM
PHGYFLPGQFAFS (listed as Mus sp.) [C13]	–	32	10	little chemotactic activity	–	Suppression of LPS/IFNγ-induced RANTES secretion (FIG. 2B) [2, 4]: 32%; Suppression of LPS/IFNγ-induced TNFα expression (FIG. 2B) [2, 4]: 10%; Optimal dose (maximal response) for suppression of LPS/IFNγ-induced cytokine expression [2]: 100 pM; Concentration of maximal macrophage migration [3]: 10 nM
RALRTK (listed as Mus sp.) [C6, 6 aa peptide removed during prochemerin cleavage, reference compound]	–	0	0	incapable of inducing MΦ migration	no detectable anti-inflammatory activity	–
TNFα	–	–	–	–	–	Potency of comparison mediators [1]: 10^−11 M
